According to US8940716B2, “Bicyclic heteroaryl compounds as GPR119 modulators” (Bristol-Myers Squibb Company, priority 2010, dated 2015):

Assays:
[1] = tested on: plasma glucose in male C57BL/6J mice; assay: Mouse oral glucose tolerance test; format: in vivo
Method: Twenty four (24) male C57BL/6J mice (8-10 weeks old, average weight 28 g) were randomized into 4 groups (1 mouse/cage) of 6 mice per group based on fed plasma glucose and body weight. Prior to initiating the study, mice were fasted overnight and the next morning they were weighed and placed in the experimental lab. After 30 min in the environment, the mice were bled via tail tip at −60 min and immediately given their first oral administration of vehicle (40% PEG400, 10% Cremophor EL, 50% water) or compound solutions (5 ml/kg). At time 0 the mice were bled and given 50% glucose (2 g/kg) to initiate the oral glucose tolerance test (oGTT). The mice were bled 30, 60 and 120 min after the glucose load. Blood samples were drawn into potassium EDTA, placed on ice during the study and subsequently centrifuged for 10 min at 3000 rpm at 4° C. Plasma samples were diluted 11-fold for glucose analysis in the COBAS MIRA® System (Roche Diagnostics). Area under the curve was calculated from the plasma glucose time course data using the trapezoid rule with fasting plasma glucose as the baseline (GraphPad Prism Software). The statistical significance of the changes in the glucose AUCs resulting from the different treatments was determined by one-way ANOVA followed by Dunnett's test using the vehicle group as the control (JMP software, release 5.1.2). […]

[2] = target: T1, human-mouse chimeric GPR119 (Homo sapiens, UniProt Q8TDV5, A235T/C313R/C323Y/E253K/F304I/F307L/G211A/G245S/H255C/K284R/L224V/L258Q/L288Q/L301F/P218V/P318T/Q252H/R262K/S214P/S219N/S228A/S309P/S322A/T217S/T239S/V227I/V300F); assay: Tet-inducible cAMP assay; format: cell-based; conditions: cAMP accumulation (HTRF), Flp-In-T-Rex-HEK293 cells expressing chimeric human/mouse GPR119, 50 min incubation; read-out: GPR119 EC50
T1 construct: the first 198 amino acids of human GPR119; the C-terminal 137 amino acids of the mouse receptor; expressed in transfected cells
T1 sequence (Q8TDV5 with tags, fused parts or gaps G211A/S214P/T217S/P218V/S219N/L224V/V227I/S228A/A235T/T239S/G245S/Q252H/E253K/H255C/L258Q/R262K/K284R/L288Q/V300F/L301F/F304I/F307L/S309P/C313R/P318T/S322A/C323Y): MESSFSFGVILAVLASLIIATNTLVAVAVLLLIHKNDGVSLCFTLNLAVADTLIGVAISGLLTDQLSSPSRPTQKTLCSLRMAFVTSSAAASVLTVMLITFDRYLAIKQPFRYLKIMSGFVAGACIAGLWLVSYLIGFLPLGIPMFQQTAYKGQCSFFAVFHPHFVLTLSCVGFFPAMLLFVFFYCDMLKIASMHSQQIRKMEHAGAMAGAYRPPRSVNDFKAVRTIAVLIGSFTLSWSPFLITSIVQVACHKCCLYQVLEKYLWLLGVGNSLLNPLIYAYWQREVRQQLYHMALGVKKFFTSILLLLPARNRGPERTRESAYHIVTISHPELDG
Method: The in vitro modulation of recombinant human GPR119 was determined as follows.
A human-mouse chimeric GPR119 expression construct encoding 3 copies of the FLAG epitope tag, the first 198 amino acids of human GPR119 and the C-terminal 137 amino acids of the mouse receptor was cloned into a tetracycline inducible vector pcDNA5/FRT/TO (Invitrogen #V6520-20), which includes a hygromycin-resistance marker. Tightly controlled receptor expression was achieved by stable integration of this construct into the genome of a specific host cell line, Flp-In-T-Rex-HEK293, expressing the tetracycline repressor (Invitrogen). Once a stable hygromycin-resistant cell line was generated, the cells were maintained at 37° C. in a humidified 5% CO2 atmosphere in culture medium consisting of Dulbecco's modified Eagle's medium (DMEM; Invitrogen #11960) supplemented with 2 mM L-glutamine, 10% fetal bovine serum, 200 μg/ml hygromycin B, and 15 μg/ml blasticidin.
Forty-eight hours prior to the cAMP accumulation assay, cells stably expressing the chimeric human/mouse GPR119 construct were seeded at a density of 4×10^3 cells/well in 384 well poly-D-lysine coated solid white plates (BD #35-6661) and grown at 37° C. in a humidified 5% CO2 atmosphere in culture medium supplemented with 1 μg/ml tetracycline to induce expression of the receptor. On the day of the assay, medium was removed and cells were incubated for 50 min. at 37° C. in a humidified 5% CO2 atmosphere in 20 μl/well of assay buffer (phosphate-buffered saline with Ca^2+ and Mg^2+, 12 mM glucose, 0.1 mM isobutyl-methyl-xanthine, 0.1% fatty-acid free bovine serum albumin) with the desired concentration of compound added from a concentrated stock dissolved in dimethyl sulfoxide (DMSO) to give a final concentration of 1% DMSO in the assay. cAMP accumulation was measured using the CisBio homogeneous time resolved fluorescence (HTRF) assay kit (#62AM2PEC) following the manufacturer's protocol. Briefly, 10 μl each of the cAMP-HTRF fluorescence detection reagents were added to each well, and the samples were incubated for 40 min. at room temperature. Fluorescence was excited at 320 nm and measured at 665 and 620 nm using the Envision instrument (Perkin Elmer), the fluorescence ratio of 665/620 was calculated and converted to nanomolar concentrations of cAMP in each well by interpolation from a cAMP standard curve. The concentration-response curves and EC50 values were calculated with a four parameter logistic curve fit equation utilizing Excel/XLfit software (Microsoft and IDBS). The EC50 value was calculated as the concentration of agonist which increased the cAMP concentration to a value halfway between the baseline and the maximum.
Compounds of the present invention were tested in the Tet-inducible cAMP assay described immediately above and the results shown in Table 2 below were obtained.

Compound	EC50 [2] [µM]	Glucose Lowering (%) ([1]; change in plasma glucose AUC vs vehicle at the minimally efficacious dose, oGTT, oral)	Minimally efficacious Dose ([1]; oral administration 60 min before glucose load (2 g/kg), fasted male C57BL/6J mice) [mg/kg]
CCCc1cnc(N2CCC(Oc3nc4ccc(C5=CCN(S(=O)(=O)CCC)CC5)cc4s3)CC2)nc1 [Example 1, 2-(1-(5-Propylpyrimidin-2-yl)piperidin-4-yloxy)-6-(1-(propylsulfonyl)-1,2,3,6-tetrahydropyridin-4-yl)benzo[d]thiazole]		−39	10
CCCc1cnc(N2CCC(Oc3nc4ccc(C5=CCN(S(=O)(=O)CCC6(O)CC6)CC5)cc4s3)CC2)nc1 [Example 131]	0.005		
CCCc1cnc(N2CCC(Oc3nc4ccc(C5=CCN(c6ncc(C)s6)CC5)cc4s3)CC2)nc1 [Example 61]	0.547		

Continued by falling EC50 [2], values first:

EC50 [2] [µM]	Compound	Glucose Lowering (%) ([1]; change in plasma glucose AUC vs vehicle at the minimally efficacious dose, oGTT, oral)	Minimally efficacious Dose ([1]; oral administration 60 min before glucose load (2 g/kg), fasted male C57BL/6J mice) [mg/kg]
0.839	CCCS(=O)(=O)N1CC=C(c2ccc3nc(OC4CCN(C(C)=O)CC4)sc3c2)CC1 [Example 92]		
0.0291	CCCS(=O)(=O)N1CC=C(c2ccc3nc(OC4CCN(S(=O)(=O)C5CC5)CC4)sc3c2)CC1 [Example 22, 2-(1-(Cyclopropylsulfonyl)piperidin-4-yloxy)-6-(1-(propylsulfonyl)-1,2,3,6-tetrahydropyridin-4-yl)benzo[d]thiazole]		
0.0036	CC(C)(O)CCS(=O)(=O)N1CC=C(c2ccc3nc(OC4CCN(c5ncc(Cl)cn5)CC4)sc3c2)CC1 [Example 118]		
